Measurements published in the supplement of paper PMC4862054.

Assays:
Experiment in all cases: normalised response (% of control), CellTiter-Glo; higher = more viable cells (100 = DMSO, 0 = benzethonium chloride kill control)
Conditions in all cases: incubation time: 72 h
MDA-MB-231 = tested on: MDA-MB-231
Procedure, shortened: (§1)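 Breast cancer cell lines, seeded at 20 µl suspension per well, were incubated for 72 h in 384-well plates containing compound at 5 concentrations. These concentrations rose in 10-fold steps over a 10,000-fold range set for each compound. CellTox Green fluorescence (485/520 nm) was read, then CellTiter-Glo luminescence after 10 min at room temperature, and each plate was normalised to 0.1 % DMSO (100) and a positive kill control (0). Values are normalised signals, each at one concentration.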

MDA-MB-436 = tested on: MDA-MB-436
Procedure, shortened: as §1

CAL-85-1 = tested on: CAL-85-1
Procedure, shortened: as §1

BT-474 = tested on: BT-474
Procedure, shortened: as §1

Hs578T = tested on: Hs578T
Procedure, shortened: as §1

MFM-223 = tested on: MFM-223
Procedure, shortened: as §1

SK-BR-3 = tested on: SK-BR-3
Procedure, shortened: as §1

BT-549 = tested on: BT-549
Procedure, shortened: as §1

MDA-MB-453 = tested on: MDA-MB-453
Procedure, shortened: as §1

MCF-10A = tested on: MCF-10A
Procedure, shortened: as §1

CAL-120 = tested on: CAL-120
Procedure, shortened: as §1

HCC1143 = tested on: HCC1143
Procedure, shortened: as §1

MDA-MB-468 = tested on: MDA-MB-468
Procedure, shortened: as §1

HDQ-P1 = tested on: HDQ-P1
Procedure, shortened: as §1

HCC1599 = tested on: HCC1599
Procedure, shortened: as §1

CAL-148 = tested on: CAL-148
Procedure, shortened: as §1

HCC1937 = tested on: HCC1937
Procedure, shortened: as §1

DU-4475 = tested on: DU-4475
Procedure, shortened: as §1

CAL-51 = tested on: CAL-51
Procedure, shortened: as §1

Compound	normalised response (MDA-MB-231) [%]	normalised response (MDA-MB-436) [%]	normalised response (CAL-85-1) [%]	normalised response (BT-474) [%]	normalised response (Hs578T) [%]	normalised response (MFM-223) [%]	normalised response (SK-BR-3) [%]	normalised response (BT-549) [%]	normalised response (MDA-MB-453) [%]	normalised response (MCF-10A) [%]	normalised response (CAL-120) [%]	normalised response (HCC1143) [%]	normalised response (MDA-MB-468) [%]	normalised response (HDQ-P1) [%]	normalised response (HCC1599) [%]	normalised response (CAL-148) [%]	normalised response (HCC1937) [%]	normalised response (DU-4475) [%]	normalised response (CAL-51) [%]
COc1cc2c(cc1-c1c(C)noc1C)ncc1[nH]c(=O)n([C@H](C)c3ccccn3)c12 [I-BET151] (1 nM)	99.5	98.5	103	96.7	101	97.8	97.8	99.7	102	109	101	105	95.9	106	103	104	96.6	103	81.1
CCc1c(C(=O)C(N)=O)c2c(OCC(=O)O)cccc2n1Cc1ccccc1 [Varespladib] (1 nM)	111	102	97.9	97.6	103	97.7	101	98.7	106	110	98.1	99	89.2	100	102	109	96.6	93.6	100
CC/C(=C(\c1ccccc1)c1ccc(OCCN(C)C)cc1)c1ccccc1 [Tamoxifen] (10 nM)	100	100	98.8	103	97.3	108	100	91.8	98.7	112	100	114	99.2	104	103	108	103	104	83.8
O=C(O)CC[C@H]1CC[C@@](c2cc(F)ccc2F)(S(=O)(=O)c2ccc(Cl)cc2)CC1 [MK-0752] (1 nM)	102	101	102	103	104	112	102	93	111	113	102	99.5	98.5	95.6	97.5	107	98.7	104	87.3
N[C@@H](Cc1ccc(N(CCCl)CCCl)cc1)C(=O)O [Melphalan] (12.5 nM)	102	103	99.4	103	104	99.5	95	100	104	101	101	95.3	95.4	103	133	96.2	102	99.3	75.2
O=NN(CCCl)C(=O)NC1CCCCC1 [Lomustine] (10 nM)	99.4	95.2	95	105	108	104	90.8	98.3	106	107	98.3	103	92.5	102	83.8	98.6	102	102	120
CC(C)n1nc(-c2ccc3oc(N)nc3c2)c2c(N)ncnc21 [INK128] (0.1 nM)	92.1	79.1	96.6	90.8	96.3	89.8	96	93.9	101	90.6	91	86.4	93.3	87.9	94.7	92.2	89.1	90.2	106
CO[C@H](C(=O)[C@@H](O)[C@@H](C)O)[C@@H]1Cc2cc3cc(O[C@H]4C[C@@H](O[C@@H]5C[C@@H](O)[C@H](O)[C@@H](C)O5)[C@H](O)[C@@H](C)O4)c(C)c(O)c3c(O)c2C(=O)[C@H]1O[C@H]1C[C@@H](O[C@@H]2C[C@@H](O)[C@@H](O[C@@H]3C[C@](C)(O)[C@H](O)[C@@H](C)O3)[C@@H](C)O2)[C@H](O)[C@@H](C)O1 [Plicamycin] (10 nM)	103	101	103	108	105	108	111	104	118	114	101	103	109	96.4	117	116	97.7	107	74.9
COc1cc(Nc2ncc(F)c(Nc3ccc4c(n3)N(COP(=O)(O)O)C(=O)C(C)(C)O4)n2)cc(OC)c1OC [Fostamatinib] (0.25 nM)	101	110	99.3	97.2	99.2	94.9	98	107	99.4	103	107	100	97.4	99.1	111	93.3	106	96.2	83.5
Cn1cc(C[C@@H](N)C(=O)O)c2ccccc21 [1-methyl-D-tryptophan] (5 nM)	96.8	107	91.3	100	93.2	94.2	99.8	95.7	90.1	95.2	95.1	102	98.3	104	107	88.9	98.5	95.8	94.2
